Test results taken from PubChem BioAssay (NCI).
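96-well plates; 48 h exposure; 5 concentrations. Endpoints by linear interpolation between flanking doses. Not reached: highest tested concentration assigned. TGI is the concentration that stops growth completely.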

Legend:
Test in all cases: growth of human tumour cells (NCI), 48 h
[1] = test system: SK-OV-3 ovarian
[2] = test system: SF-539 CNS
[3] = test system: RPMI-8226 leukemia
[4] = test system: IGROV1 ovarian
[5] = test system: U251 CNS
[6] = test system: SNB-19 CNS
[7] = test system: HT29 colon
[8] = test system: 786-0 renal
[9] = test system: OVCAR-8 ovarian
[10] = test system: ACHN renal
[11] = test system: OVCAR-4 ovarian
[12] = test system: MDA-MB-435
[13] = test system: KM12 colon
[14] = test system: MALME-3M melanoma
[15] = test system: SK-MEL-5 melanoma
[16] = test system: SF-295 CNS
[17] = test system: SNB-75 CNS
[18] = test system: NCI-H23 lung
[19] = test system: HCT-15 colon
[20] = test system: SF-268 CNS
[21] = test system: PC-3 prostate
[22] = test system: RXF 393 renal
[23] = test system: LOX IMVI melanoma
[24] = test system: MCF7 breast
[25] = test system: A549 NSCLC
[26] = test system: SK-MEL-2 melanoma
[27] = test system: CAKI-1 renal
[28] = test system: A498 renal
[29] = test system: SW-620 colon
[30] = test system: SR leukemia
[31] = test system: OVCAR-3 ovarian
[32] = test system: T-47D breast
[33] = test system: UACC-62 melanoma
[34] = test system: MOLT-4 leukemia
[35] = test system: DU-145 prostate
[36] = test system: BT-549 breast
[37] = test system: OVCAR-5 ovarian
[38] = test system: HCC-2998 colon
[39] = test system: HCT-116 colon
[40] = test system: NCI-H226 lung
[41] = test system: UACC-257 melanoma
[42] = test system: NCI/ADR-RES ovarian
[43] = test system: TK-10 renal
[44] = test system: NCI-H460 lung
[45] = test system: HOP-62 NSCLC
[46] = test system: UO-31 renal
[47] = test system: EKVX NSCLC
[48] = test system: SK-MEL-28 melanoma
[49] = test system: M14 melanoma
[50] = test system: COLO 205 colon
[51] = test system: MDA-MB-231 breast
[52] = test system: K-562 leukemia
[53] = test system: HOP-92 NSCLC

CC1(C)C2CCC1(C)[C@H](O)[C@H]2Nc1cc(C(F)(F)F)cc(C(F)(F)F)c1 (stereo not given in full)
TGI [1]: 13.8 µM | TGI [2]: 15.6 µM | TGI [3]: 7.11 µM | TGI [4]: 11.5 µM | TGI [5]: 14.2 µM | TGI [6]: 16.2 µM | TGI [7]: 12.5 µM | TGI [8]: 12.2 µM | TGI [9]: 9.26 µM | TGI [10]: > 100 µM | TGI [11]: 17.3 µM | TGI [12]: 11.6 µM | TGI [13]: 10.7 µM | TGI [14]: 9.12 µM | TGI [15]: 17.6 µM | TGI [16]: 7.27 µM | TGI [17]: 3.56 µM | TGI [18]: 6.98 µM | TGI [19]: 12.6 µM | TGI [20]: 8.02 µM | TGI [21]: 8.42 µM | TGI [22]: 9.03 µM | TGI [23]: 10.4 µM | TGI [24]: > 100 µM | TGI [25]: 13.6 µM | TGI [26]: 5.45 µM | TGI [27]: 13.1 µM | TGI [28]: > 100 µM | TGI [29]: 12 µM | TGI [30]: 9.23 µM | TGI [31]: 6.01 µM | TGI [32]: 6.99 µM | TGI [33]: > 100 µM | TGI [34]: 5.91 µM | TGI [35]: 12.1 µM | TGI [36]: 8.31 µM | TGI [37]: 21.1 µM | TGI [38]: 9.8 µM | TGI [39]: 8.17 µM | TGI [40]: 19.4 µM | TGI [41]: 12.9 µM | TGI [42]: 7.13 µM | TGI [43]: 9.89 µM | TGI [44]: 12 µM | TGI [45]: 17.7 µM | TGI [46]: 12.7 µM | TGI [47]: 12.5 µM | TGI [48]: 7.14 µM | TGI [49]: 15.6 µM | TGI [50]: 3.28 µM | TGI [51]: 15.3 µM | TGI [52]: 7.72 µM

N#Cc1nnc2ccccc2c1N
TGI [2]: > 100 µM | TGI [3]: > 100 µM | TGI [4]: > 100 µM | TGI [5]: > 100 µM | TGI [6]: > 100 µM | TGI [7]: > 100 µM | TGI [8]: > 100 µM | TGI [9]: > 100 µM | TGI [10]: > 100 µM | TGI [11]: > 100 µM | TGI [12]: > 100 µM | TGI [13]: > 100 µM | TGI [14]: > 100 µM | TGI [15]: > 100 µM | TGI [18]: > 100 µM | TGI [19]: > 100 µM | TGI [20]: > 100 µM | TGI [21]: > 100 µM | TGI [23]: > 100 µM | TGI [24]: > 100 µM | TGI [25]: > 100 µM | TGI [26]: > 100 µM | TGI [27]: > 100 µM | TGI [29]: > 100 µM | TGI [53]: > 100 µM | TGI [30]: > 100 µM | TGI [31]: 26.4 µM | TGI [32]: > 100 µM | TGI [33]: > 100 µM | TGI [34]: > 100 µM | TGI [35]: > 100 µM | TGI [36]: > 100 µM | TGI [37]: > 100 µM | TGI [38]: > 100 µM | TGI [39]: > 100 µM | TGI [40]: > 100 µM | TGI [41]: > 100 µM | TGI [42]: > 100 µM | TGI [43]: > 100 µM | TGI [44]: > 100 µM | TGI [45]: > 100 µM | TGI [46]: > 100 µM | TGI [47]: > 100 µM | TGI [48]: > 100 µM | TGI [49]: > 100 µM | TGI [50]: > 100 µM | TGI [51]: > 100 µM | TGI [52]: > 100 µM
